The source of these data is patent US9499550B2 (BRISTOL-MYERS SQUIBB COMPANY, priority 2012, dated 2016).

Read-outs that look alike come from different tables or passages of the source.

In assay [1] the test system is HCV genotype 1b (Con1) replicon in HUH-7 cells. In words: HCV replicon luciferase reporter assay, genotype 1b. Type of assay: cell-based. As to conditions: Hepatitis C virus, Huh-7, 72 h, HCV genotype 1b replicon luciferase, 3 days incubation, read-out: LE_1b (EC50, range). A digest of the protocol:
(§1)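 Replicon inhibition for both genotypes was measured as Renilla luciferase signal (EnduRen, 7.5 μM final, 2 h) after 3-day, 37° C exposure of replicon-bearing HUH-7 cells in 4% FCS DMEM, 0.5% DMSO. The 1b construct carries S1179I; the 1a H77 construct carries P1496L and S2204I. Twenty-point, 3-fold dilutions were fitted four-parametrically for EC50, and CC50 was taken from multiplexed Cell Titer-Blue.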
In general terms: Replicon systems follow genome replication, usually without infectious particles.

Assay [2] deals with HCV genotype 1a (H77 strain) replicon in HUH-7 cells. In words: HCV replicon luciferase reporter assay, genotype 1a. Type of assay: cell-based. As to conditions: Hepatitis C virus, Huh-7, 72 h, HCV genotype 1a replicon luciferase, 3 days incubation, read-out: LE_1a (EC50, range). In short, it runs like this:
as §1

Take `COc1ccc2c(O[C@@H]3C[C@H]4C(=O)N[C@]5(C(=O)NS(=O)(=O)C6(C)CC6)C[C@H]5/C=C\CC[C@@H](C)C[C@@H](C)[C@H](NC(=O)OC(C)(C)C(F)(F)F)C(=O)N4C3)cc(-c3ccc(OC(C)C)cc3)nc2c1` [Compound 4172]: the EC50 in assay [1] (GETYPE1B) and in assay [2] (GETYPE1A) was less than 5.46 nM in each case.
For `COc1ccc2c(O[C@@H]3C[C@H]4C(=O)N[C@]5(C(=O)NS(=O)(=O)C6(C)CC6)C[C@H]5/C=C\CC[C@@H](C)C[C@@H](C)[C@H](NC(=O)OC(C)(C)C)C(=O)N4C3)ncc(N3CCN(CC(F)F)CC3)c2c1` [Compound 4173], the 50% effective concentration (EC50) in assay [1] (GETYPE1B) and in assay [2] (GETYPE1A) was less than 5.46 nM each time.
For the compound `CC[C@@H]1C[C@H](C)CC/C=C\[C@@H]2C[C@@]2(C(=O)NS(=O)(=O)C2(C)CC2)NC(=O)[C@@H]2C[C@@H](Oc3nccc4cc(OC)c(F)cc34)CN2C(=O)[C@H]1NC(=O)OC(C)(C)C` [Compound 4175, tert-butyl (2R,6S,7R,9R,13aS,14aR,16aS,Z)-7-ethyl-2-(7-fluoro-6-methoxyisoquinolin-1-yloxy)-9-methyl-14a-(1-methylcyclopropylsulfonylcarbamoyl)-5,16-dioxo-1,2,3,5,6,7,8,9,10,11,13a,14,14a,15,16,16a-hexadecahydrocyclopropa[e]pyrrolo[1,2-a][1,4]diazacyclopentadecin-6-ylcarbamate], the EC50 in assay [1] and in assay [2] was less than 5.46 nM each time.
`CC[C@@H]1C[C@H](C)CC/C=C\[C@@H]2C[C@@]2(C(=O)NS(=O)(=O)C2(C)CC2)NC(=O)[C@@H]2C[C@@H](Oc3nccc4cc(OC)ccc34)CN2C(=O)[C@H]1NC(=O)O[C@H](C)C(F)(F)F` [Compound 4177, (R)-1,1,1-trifluoropropan-2-yl (2R,6S,7R,9R,13aS,14aR,16aS,Z)-7-ethyl-2-(6-methoxyisoquinolin-1-yloxy)-9-methyl-14a-(1-methylcyclopropylsulfonylcarbamoyl)-5,16-dioxo-1,2,3,5,6,7,8,9,10,11,13a,14,14a,15,16,16a-hexadecahydrocyclopropa[e]pyrrolo[1,2-a][1,4]diazacyclopentadecin-6-ylcarbamate]: the EC50 in assay [1] and in assay [2] was less than 5.46 nM each time.
`COc1ccc2c(O[C@@H]3C[C@H]4C(=O)N[C@]5(C(=O)NS(=O)(=O)C6(C)CC6)C[C@H]5/C=C\CC[C@@H](C)C[C@@H](C)[C@H](NC(=O)OC(C)(C)C(F)(F)F)C(=O)N4C3)ncc(-c3ccc(OC)nc3)c2c1` [Compound 4178]: the EC50 in assay [1] (GETYPE1B) and in assay [2] (GETYPE1A) was less than 5.46 nM in each case.
As to `C[C@@H]1CC/C=C\[C@@H]2C[C@@]2(C(=O)NS(=O)(=O)C2(C)CC2)NC(=O)[C@@H]2C[C@@H](Oc3cnc4ccc(F)cc4n3)CN2C(=O)[C@@H](NC(=O)OC(C)(C)C)[C@H](C)C1` [Compound 4179, tert-butyl (2R,6S,7R,9R,13aS,14aR,16aS,Z)-2-(7-fluoroquinoxalin-2-yloxy)-7,9-dimethyl-14a-(1-methylcyclopropylsulfonylcarbamoyl)-5,16-dioxo-1,2,3,5,6,7,8,9,10,11,13a,14,14a,15,16,16a-hexadecahydrocyclopropa[e]pyrrolo[1,2-a][1,4]diazacyclopentadecin-6-ylcarbamate], the EC50 in assay [1] and in assay [2] was less than 5.46 nM each time.
As to `CCOc1cnc(O[C@@H]2C[C@H]3C(=O)N[C@]4(C(=O)NS(=O)(=O)C5(C)CC5)C[C@H]4/C=C\CC[C@@H](C)C[C@@H](CC)[C@H](NC(=O)OC(C)(C)C)C(=O)N3C2)c2ccccc12` [Compound 4180, tert-butyl (2R,6S,7R,9R,13aS,14aR,16aS,Z)-2-(4-ethoxyisoquinolin-1-yloxy)-7-ethyl-9-methyl-14a-(1-methylcyclopropylsulfonylcarbamoyl)-5,16-dioxo-1,2,3,5,6,7,8,9,10,11,13a,14,14a,15,16,16a-hexadecahydrocyclopropa[e]pyrrolo[1,2-a][1,4]diazacyclopentadecin-6-ylcarbamate], the EC50 in assay [1] and in assay [2] was less than 5.46 nM throughout.
In the case of `CC[C@@H]1C[C@H](C)CC/C=C\[C@@H]2C[C@@]2(C(=O)NS(=O)(=O)C2(C)CC2)NC(=O)[C@@H]2C[C@@H](Oc3ncc(OC)c4ccc(F)cc34)CN2C(=O)[C@H]1NC(=O)OC(C)(C)C` [Compound 4181, tert-butyl (2R,6S,7R,9R,13aS,14aR,16aS,Z)-7-ethyl-2-(7-fluoro-4-methoxyisoquinolin-1-yloxy)-9-methyl-14a-(1-methylcyclopropylsulfonylcarbamoyl)-5,16-dioxo-1,2,3,5,6,7,8,9,10,11,13a,14,14a,15,16,16a-hexadecahydrocyclopropa[e]pyrrolo[1,2-a][1,4]diazacyclopentadecin-6-ylcarbamate], the EC50 in assay [1] and in assay [2] was less than 5.46 nM in each case.
Take `CC[C@@H]1C[C@H](C)CC/C=C\[C@@H]2C[C@@]2(C(=O)NS(=O)(=O)C2(C)CC2)NC(=O)[C@@H]2C[C@@H](Oc3nccc4cc(OC)ccc34)CN2C(=O)[C@H]1NC(=O)OC(C)(C)C(F)(F)F` [Compound 4182]: the EC50 in assay [1] (GETYPE1B) and in assay [2] (GETYPE1A) was less than 5.46 nM throughout.
In the case of `COc1ccc2nc(C(F)(F)F)c(O[C@@H]3C[C@H]4C(=O)N[C@]5(C(=O)NS(=O)(=O)C6(C)CC6)C[C@H]5/C=C\CC[C@@H](C)C[C@@H](C)[C@H](NC(=O)OC(C)(C)C)C(=O)N4C3)nc2c1` [Compound 4183, tert-butyl (2R,6S,7R,9R,13aS,14aR,16aS,Z)-2-(7-methoxy-3-(trifluoromethyl)quinoxalin-2-yloxy)-7,9-dimethyl-14a-(1-methylcyclopropylsulfonylcarbamoyl)-5,16-dioxo-1,2,3,5,6,7,8,9,10,11,13a,14,14a,15,16,16a-hexadecahydrocyclopropa[e]pyrrolo[1,2-a][1,4]diazacyclopentadecin-6-ylcarbamate], the EC50 in assay [1] and in assay [2] was less than 5.46 nM in each case.
`CCOc1cnc(O[C@@H]2C[C@H]3C(=O)N[C@]4(C(=O)NS(=O)(=O)C5CC5)C[C@H]4/C=C\CC[C@@H](C)C[C@@H](CC)[C@H](NC(=O)OC(C)(C)C(F)(F)F)C(=O)N3C2)c2ccccc12` [Compound 4185]: the EC50 in assay [1] (GETYPE1B) and in assay [2] (GETYPE1A) was less than 5.46 nM in each case.
For `CC[C@@H]1C[C@H](C)CC/C=C\[C@@H]2C[C@@]2(C(=O)NS(=O)(=O)C2(C)CC2)NC(=O)[C@@H]2C[C@@H](Oc3ncc(OC)c4ccc(Cl)cc34)CN2C(=O)[C@H]1NC(=O)OC(C)(C)C(F)(F)F` [Compound 4188], the EC50 in assay [1] (GETYPE1B) and in assay [2] (GETYPE1A) was less than 5.46 nM throughout.
Regarding `CC[C@@H]1C[C@H](C)CC/C=C\[C@@H]2C[C@@]2(C(=O)NS(=O)(=O)C2CC2)NC(=O)[C@@H]2C[C@@H](Oc3ncnc4cc(OC)ccc34)CN2C(=O)[C@H]1NC(=O)OC(C)(C)C(F)(F)F` [Compound 4189], the EC50 in assay [1] (GETYPE1B) and in assay [2] (GETYPE1A) was less than 5.46 nM throughout.
As for `CC[C@@H]1C[C@H](C)CC/C=C\[C@@H]2C[C@@]2(C(=O)NS(=O)(=O)C2CC2)NC(=O)[C@@H]2C[C@@H](Oc3ncc(OC)c4ccc(Cl)cc34)CN2C(=O)[C@H]1NC(=O)OC(C)(C)C(F)(F)F` [Compound 4190], the EC50 in assay [1] (GETYPE1B) and in assay [2] (GETYPE1A) was less than 5.46 nM each time.
As for `CC[C@@H]1C[C@H](C)CC/C=C\[C@@H]2C[C@@]2(C(=O)NS(=O)(=O)C2(CF)CC2)NC(=O)[C@@H]2C[C@@H](Oc3nccc4cc(OC)c(F)cc34)CN2C(=O)[C@H]1NC(=O)OC(C)(C)C(F)(F)F` [Compound 4193], the 50% effective concentration (EC50) in assay [1] (GETYPE1B) and in assay [2] (GETYPE1A) was less than 5.46 nM each time.
As for `COc1ccc2nc(C(F)(F)F)c(O[C@@H]3C[C@H]4C(=O)N[C@]5(C(=O)NS(=O)(=O)C6(C)CC6)C[C@H]5/C=C\CC[C@@H](C)C[C@@H](C)[C@H](NC(=O)OC(C)(C)C(F)(F)F)C(=O)N4C3)nc2c1` [Compound 4195], the EC50 in assay [1] (GETYPE1B) and in assay [2] (GETYPE1A) was less than 5.46 nM each time.
Turning to `CC[C@@H]1C[C@H](C)CC/C=C\[C@@H]2C[C@@]2(C(=O)NS(=O)(=O)C2(C)CC2)NC(=O)[C@@H]2C[C@@H](Oc3ncc(OC)c4cc(OC)ccc34)CN2C(=O)[C@H]1NC(=O)OC(C)(C)C` [Compound 4196, tert-butyl (2R,6S,7R,9R,13aS,14aR,16aS,Z)-2-(4,6-dimethoxyisoquinolin-1-yloxy)-7-ethyl-9-methyl-14a-(1-methylcyclopropylsulfonylcarbamoyl)-5,16-dioxo-1,2,3,5,6,7,8,9,10,11,13a,14,14a,15,16,16a-hexadecahydrocyclopropa[e]pyrrolo[1,2-a][1,4]diazacyclopentadecin-6-ylcarbamate], the EC50 in assay [1] and in assay [2] was less than 5.46 nM each time.
On to `CC[C@@H]1C[C@H](C)CC/C=C\[C@@H]2C[C@@]2(C(=O)NS(=O)(=O)C2(C)CC2)NC(=O)[C@@H]2C[C@@H](Oc3ncc(OC)c4cc(OC)ccc34)CN2C(=O)[C@H]1NC(=O)OC(C)(C)C(F)(F)F` [Compound 4197], for which the EC50 in assay [1] (GETYPE1B) and in assay [2] (GETYPE1A) was less than 5.46 nM in each case.
For the compound `COc1ccc2c(Cl)cc(O[C@@H]3C[C@H]4C(=O)N[C@]5(C(=O)NS(=O)(=O)C6(CF)CC6)C[C@H]5/C=C\CC[C@@H](C)C[C@@H](C)[C@H](NC(=O)OC(C)(C)C(F)(F)F)C(=O)N4C3)nc2c1` [Compound 4200], the half-maximal effective concentration (EC50) in assay [1] (GETYPE1B) was less than 5.46 nM; in assay [2] (GETYPE1A), 4.82 to 103 nM.

As usually defined, the EC50 is the concentration giving half of the maximal effect.
